Assay results taken from patent US8802117B2 (Mavi Sud S.r.l., priority 2006, dated 2014).
“Also recorded” adds a separate entry of the source.

Tests used:
[1] = Overall in vitro and in vivo tests of tables 1-9 (fibroblast growth, ATP, collagen, IL-8, hydration, lipids, lipid peroxides, melanin); conditions: in association with melatonin, concentrations being equal
Method: Fibroblasts of NB1RGB strain were used (2×10^5 cell/ml) and suspended in the α-MEM culture medium placed in 10 Petri dishes (containing 10% foetal bovine serum (FBS), 100 units/ml penicillin and 100 µg/ml streptomycin). while two were left as control. All products were additioned in a 1 μg/ml concentration. All biochemical processes require energy that is accumulated in the form of ATP (adenosyn-triphosphate). […] Out of the 9 culture-containing Petri dishes used, 8 were additioned with 1% μg/ml of the different substances to be tested, whereas one served as control. A continuous and regular collagen synthesis is of fundamental importance for the ECM (extracellular matrix) structure, and therefore for skin elasticity and compactness and wrinkle reduction. Collagen 1 presence was verified with the use of specific antibodies on all ten cell cultures, 8 of which enriched with 1% μl/ml of the various substances directly introduced in the culture medium, and one as control. Collected blood aliquots, pre-supplemented and non-supplemented with the components under study (1 μl/ml) were subdivided into 10 Petri dishes, 8 of which were further supplemented with 10 μl/ml Tumor Necrose Factor a (TNF-α), and one left as control. […] IL-8 amounts were determined photometrically, by specific antibodies. […] During the checking, skin surface lipids and hydration were verified by 3C System. Lipid peroxides were checked with the Pugliesi method (Pugliesi P. (1990) Assessment of Antiaging Products. In: W.C. […] This experiment was meant to assess the protective activity of these compounds if and when taken orally. […] (International Units)/ml penicillin and […] streptomycin) containing 2 mM teophylline. The suspension was subdivided into 7 500-μl portions. To each portion, placed in suitable bars, […] of the various mixtures of active agents were added. Of each mixture 6 samples were prepared.

[2] = test system: anagen phase of hair cycle; assay: Action on the anagen phase of hair cycle: lotions A, B, C on the scalp of volunteers for 60 days; format: in vivo, human; conditions: topical lotion morning and evening
Text: Thirty volunteers (15 women and 15 men) suffering from general hair problems: slight thinning out, thinning, continual loss of hair and occasional formation of forms of alopecia restricted to scalp areas, were subjected to the treatment.
All subjects were given, under double-blind conditions, a lotion to be applied morning and evening by light friction, in the amount of 5/6 drops poured on the various areas and deemed sufficient for the treatment of the entire scalp.
The study lasted 60 days.
At day 0, an area of about 1 cm^2 was delimited in the anteroparietal zone of the scalp, from which hair was carefully removed. Removed hair were weighted to verify the mass thereof, and the number of follicles present was counted by a suitable grid.
At day +60, the number and weight of regrown hair were reassessed, again checking the number of follicles present.

nerve cell cultures = assay: Preliminary investigation of cell vitality and toxicity on nerve cell cultures (in vitro cellular models); format: cell-based

Compound	enhancement of melatonin action (synergy) [1]	other results
CC1=C[C@H](O)CC(C)(C)[C@H]1/C=C/C(C)=C/C=C/C(C)=C/C=C/C=C(C)/C=C/C=C(C)/C=C/C1=C(C)C[C@@H](O)CC1(C)C [lutein]	significantly enhance the bioprotective activity of melatonin; also recorded: further enhance the positive effects of melatonin	–
beta-glucan	significantly enhance the bioprotective activity of melatonin; also recorded: tendentially more active than ectoine	–
O=C(O)CCCCC1CCSS1 (stereo not drawn) [lipoic acid]	significantly enhance the bioprotective activity of melatonin; also recorded: further enhance the positive effects of melatonin; also recorded: tendentially more active than carotenoids	–
CC1=C(/C=C/C(C)=C/C=C/C(C)=C/C=C/C=C(C)/C=C/C=C(C)/C=C/C2=C(C)CCCC2(C)C)C(C)(C)CCC1 [beta-carotene]	significantly enhance the bioprotective activity of melatonin; also recorded: further enhance the positive effects of melatonin	–
COc1ccc2[nH]cc(CCNC(C)=O)c2c1 [melatonin]	–	anagen phase of hair / hair regrowth [2]: causes an increase of the anagen phase of hair, thereby enhancing its regrowth; hair weight (volume, body) [2]: without however exerting an effect on the hair weight itself; toxicity / reduction of cell vitality (nerve cell cultures; increasing concentrations, 3-mg melatonin alone vs association of melatonin, carotenoid, immunostimulant each 11-mg): cell vitality tends to reduce; also recorded: far more toxic; cytoprotective action towards free radicals of Oxygen (ROS), cell vitality (nerve cell cultures; suitable concentrations, in vitro model): capable of preserving cell vitality
CC1=NCC[C@@H](C(=O)O)N1 [ectoine]	significantly enhance the bioprotective activity of melatonin	–
